Values of other authors in patent US20240410831A1, “Multi-Mode Zinc-Selective Emission-Ratiometric Fluorescent Probes for Biological Application” (Georgia Tech Research Corporation, priority 2023, published 2024).
Counter-ions that a name gives are not always drawn.

Columns and labels:
[1] = pH 7.0, 25° C.; read-out: Kd for Zn(II) of competing ligand; cited from earlier work
[2] = in 1.0 N H2SO4; cited from earlier work

Row | Compound | Kd [1] | quantum yield of reference standard [2]
1 | O=C(O)CN(CCOCCOCCN(CC(=O)O)CC(=O)O)CC(=O)O [EGTA, ethyleneglycol-bis(β-aminoethyl)-N,N,N′,N′-tetraacetic acid] | 4.6 nM | –
2 | C=C[C@H]1C[N@@]2CC[C@H]1C[C@H]2[C@H](O)c1ccnc2ccc(OC)cc12 [quinine sulfate] | – | 0.546
